Experimental findings from US20110098304A1, “Small molecule inhibitors of PARP activity” (priority 2009, published 2011) are described below.

By IC50 is commonly meant the concentration at which inhibition is half-maximal.

The structures appear in SMILES notation. Where only a bound is given, the exact number is not on record here.

In the assay the target is T1, human PARD-1 (Poly (ADP-Ribose) Polymerase-1) (Homo sapiens, UniProt P09874).
T1 construct: purchased Trevigen Inc., Gaithersburg, Md
T1 sequence (P09874 whole entry): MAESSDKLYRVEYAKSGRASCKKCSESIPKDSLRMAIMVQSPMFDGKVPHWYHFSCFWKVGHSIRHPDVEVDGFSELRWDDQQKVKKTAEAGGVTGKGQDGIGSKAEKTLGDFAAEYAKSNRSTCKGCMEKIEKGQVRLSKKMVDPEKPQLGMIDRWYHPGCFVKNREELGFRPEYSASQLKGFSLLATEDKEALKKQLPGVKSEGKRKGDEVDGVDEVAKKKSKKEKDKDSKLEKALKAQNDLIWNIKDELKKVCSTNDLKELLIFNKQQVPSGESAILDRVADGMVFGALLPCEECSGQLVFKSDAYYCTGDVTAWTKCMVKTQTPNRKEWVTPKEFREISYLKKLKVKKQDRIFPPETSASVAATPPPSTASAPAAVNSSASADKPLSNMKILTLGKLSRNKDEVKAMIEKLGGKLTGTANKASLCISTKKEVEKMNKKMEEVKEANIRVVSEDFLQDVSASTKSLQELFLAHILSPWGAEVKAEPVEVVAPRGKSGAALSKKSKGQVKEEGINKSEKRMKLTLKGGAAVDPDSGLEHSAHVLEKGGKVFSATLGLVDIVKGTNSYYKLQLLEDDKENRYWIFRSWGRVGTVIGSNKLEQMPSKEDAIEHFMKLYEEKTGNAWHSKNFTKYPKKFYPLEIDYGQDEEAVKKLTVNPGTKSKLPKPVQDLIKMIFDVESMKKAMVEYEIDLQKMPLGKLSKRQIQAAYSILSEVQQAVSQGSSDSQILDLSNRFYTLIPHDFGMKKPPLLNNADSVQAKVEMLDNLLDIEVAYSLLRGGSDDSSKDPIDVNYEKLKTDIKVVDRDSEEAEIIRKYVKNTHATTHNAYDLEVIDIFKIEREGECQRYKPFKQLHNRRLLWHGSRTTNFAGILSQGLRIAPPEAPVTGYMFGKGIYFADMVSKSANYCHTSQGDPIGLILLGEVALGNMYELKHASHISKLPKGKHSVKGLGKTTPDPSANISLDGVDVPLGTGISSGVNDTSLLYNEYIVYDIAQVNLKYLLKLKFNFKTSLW
Kind of assay: Poly (ADP-Ribose) Polymerase-1 in vitro enzyme assay (Universal Colorimetric Assay Kit, Trevigen). Type of assay: biochemical. The conditions noted are these: letter codes; read-out: extent of inhibition of PARP activity (IC50, micromolar). The procedure: Poly (ADP-Ribose) Polymerase-1 (PARD-1) In Vitro Enzyme Assay: Compounds were screened for inhibitory activity against human PARD-1 in vitro using the Universal Colorimetric PARD Assay Kit (Trevigen Inc., Gaithersburg, Md.) as directed by the supplier. Compounds are assayed in duplicate in 0.5% DMSO final concentration, negative control is no enzyme, while positive control is DMSO vehicle alone. IC50 determinations are made using Microsoft Excel. For all cell assays, compounds are added to cells in 5% DMSO/PBS for a final concentration of 0.5% DMSO.
In the case of `CN1CCN(c2ccc(-c3n[nH]c(=O)c4ccccc34)cc2NC(=O)NC(=O)c2ccccc2)CC1` [N-(2-(4-methylpiperazin-1-yl)-5-(4-oxo-3,4-dihydrophthalazin-1-yl)phenylcarbamoyl)benzamide], the 50% inhibitory concentration (IC50) was 0.1 to 1 µM. As for `CN1CCN(c2ccc(-c3n[nH]c(=O)c4ccccc34)cc2NC(=O)c2ccc3c(c2)OCO3)CC1` [N-(2-(4-methylpiperazin-1-yl)-5-(4-oxo-3,4-dihydrophthalazin-1-yl)phenyl)benzo[d][1,3]dioxole-5-carboxamide], the IC50 is 0.1 to 1 µM. The same measure for `Nc1cc(-c2n[nH]c(=O)c3ccccc23)ccc1N1CCN(CC2CCCO2)CC1` (stereo not drawn) [4-(3-amino-4-(4-((tetrahydrofuran-2-yl)methyl)piperazin-1-yl)phenyl)phthalazin-1(2H)-one]: 0.1 to 1 µM. As to `CN1CCN(c2ccc(-c3n[nH]c(=O)c4ccccc34)cc2NC(=O)NC2CCCC2)CC1` [1-cyclopentyl-3-(2-(4-methylpiperazin-1-yl)-5-(4-oxo-3,4-dihydrophthalazin-1-yl)phenyl)urea], the half-maximal inhibitory concentration (IC50) lay within 0.1 to 1 µM.

As for `Nc1cc(-c2n[nH]c(=O)c3ccccc23)ccc1N1CCN(Cc2ccncc2)CC1` [4-(3-amino-4-(4-(pyridin-4-ylmethyl)piperazin-1-yl)phenyl)phthalazin-1(2H)-one], the 50% inhibitory concentration (IC50) was 0.001 to 0.1 µM. Consider `Nc1cc(-c2n[nH]c(=O)c3ccccc23)ccc1N1CCN(Cc2ccccc2)CC1` [4-(3-amino-4-(4-benzylpiperazin-1-yl)phenyl)phthalazin-1(2H)-one], for which the IC50 is 0.1 to 1 µM.

As to `Nc1cc(-c2n[nH]c(=O)c3ccccc23)ccc1N1CCN(C2CCCC2)CC1` [4-(3-amino-4-(4-cyclopentylpiperazin-1-yl)phenyl)phthalazin-1(2H)-one], the IC50 was 0.001 to 0.1 µM. To `Nc1cc(-c2n[nH]c(=O)c3ccccc23)ccc1N1CCN(CC2CC2)CC1` [4-(3-amino-4-(4-(cyclopropylmethyl)piperazin-1-yl)phenyl)phthalazin-1(2H)-one] belongs 0.001 to 0.1 µM. To `Nc1cc(-c2n[nH]c(=O)c3ccccc23)ccc1N1CCN(C2CC2)CC1` [4-(3-amino-4-(4-cyclopropylpiperazin-1-yl)phenyl)phthalazin-1(2H)-one] belongs 0.001 to 0.1 µM; to `Nc1cc(-c2n[nH]c(=O)c3ccccc23)ccc1N1CCN(CCCO)CC1` [4-(3-amino-4-(4-(3-hydroxypropyl)piperazin-1-yl)phenyl)phthalazin-1(2H)-one], 0.001 to 0.1 µM. The same measure for `CN1CCN(c2ccc(-c3n[nH]c(=O)c4ccccc34)cc2NC(=O)Nc2ccc(F)cc2)CC1` [1-(4-fluorophenyl)-3-(2-(4-methylpiperazin-1-yl)-5-(4-oxo-3,4-dihydrophthalazin-1-yl)phenyl)urea]: 0.1 to 1 µM; for `Nc1cc(-c2n[nH]c(=O)c3ccccc23)ccc1N1CCNCC1` [4-(3-amino-4-(piperazin-1-yl)phenyl)phthalazin-1(2H)-one]: 0.001 to 0.1 µM; for `COCCN1CCN(c2ccc(-c3n[nH]c(=O)c4ccccc34)cc2N)CC1` [4-(3-amino-4-(4-(2-methoxyethyl)piperazin-1-yl)phenyl)phthalazin-1(2H)-one]: 0.1 to 1 µM.

As for `Nc1ccccc1N1CCN(c2ccc(-c3n[nH]c(=O)c4ccccc34)cc2N)CC1` [4-(3-amino-4-(4-(2-aminophenyl)piperazin-1-yl)phenyl)phthalazin-1(2H)-one], the half-inhibitory concentration (IC50) fell in the range of 1 to 5 µM. To `CN1CCN(c2ccc(-c3n[nH]c(=O)c4ccccc34)cc2NC(=O)CCl)CC1` [2-chloro-N-(2-(4-methylpiperazin-1-yl)-5-(4-oxo-3,4-dihydrophthalazin-1-yl)phenyl)acetamide] belongs 0.1 to 1 µM; to `CN1CCN(c2ccc(-c3n[nH]c(=O)c4ccccc34)cc2NC(=O)C(C)(C)C)CC1` [N-(2-(4-methylpiperazin-1-yl)-5-(4-oxo-3,4-dihydrophthalazin-1-yl)phenyl)pivalamide], > 5 µM.

Take `CN1CCN(c2ccc(-c3n[nH]c(=O)c4ccccc34)cc2N)CC1` [4-(3-amino-4-(4-methylpiperazin-1-yl)phenyl)phthalazin-1(2H)-one]: the IC50 was 0.001 to 0.1 µM. The same measure for `Nc1cc(-c2n[nH]c(=O)c3ccccc23)ccc1N1CCN(CCC(=O)O)CC1` [3-(4-(2-amino-4-(4-oxo-3,4-dihydrophthalazin-1-yl)phenyl)piperazin-1-yl)propanoic acid]: 0.1 to 1 µM; for `CN1CCN(c2ccc(-c3n[nH]c(=O)c4ccccc34)cc2NC(=O)c2ccco2)CC1` [N-(2-(4-methylpiperazin-1-yl)-5-(4-oxo-3,4-dihydrophthalazin-1-yl)phenyl)furan-2-carboxamide]: 0.1 to 1 µM; for `COC(=O)C(=O)Nc1cc(-c2n[nH]c(=O)c3ccccc23)ccc1N1CCN(C)CC1` [methyl 2-(2-(4-methylpiperazin-1-yl)-5-(4-oxo-3,4-dihydrophthalazin-1-yl)phenylamino)-2-oxoacetate]: 0.1 to 1 µM. To `Nc1cc(-c2n[nH]c(=O)c3ccccc23)ccc1N1CCN(c2ccncc2)CC1` [4-(3-amino-4-(4-(pyridin-4-yl)piperazin-1-yl)phenyl)phthalazin-1(2H)-one] belongs 0.001 to 0.1 µM; to `CCN1CCN(c2ccc(-c3n[nH]c(=O)c4ccccc34)cc2N)CC1` [4-(3-amino-4-(4-ethylpiperazin-1-yl)phenyl)phthalazin-1(2H)-one], 0.001 to 0.1 µM; to `CCN1CCN(c2ccc(-c3n[nH]c(=O)c4ccccc34)cc2NC(C)=O)CC1` [N-(2-(4-ethylpiperazin-1-yl)-5-(4-oxo-3,4-dihydrophthalazin-1-yl)phenyl)acetamide], 1 to 5 µM. Regarding `CN1CCN(c2ccc(-c3n[nH]c(=O)c4ccccc34)cc2NC(=O)NC2CCCCC2)CC1` [1-cyclohexyl-3-(2-(4-methylpiperazin-1-yl)-5-(4-oxo-3,4-dihydrophthalazin-1-yl)phenyl)urea], the 50% inhibitory concentration (IC50) was in the range of 0.1 to 1 µM. The same measure for `CN1CCN(c2ccc(-c3n[nH]c(=O)c4ccccc34)cc2NC(=O)c2cccc(C#N)c2)CC1` [3-cyano-N-(2-(4-methylpiperazin-1-yl)-5-(4-oxo-3,4-dihydrophthalazin-1-yl)phenyl)benzamide]: 0.1 to 1 µM; for `CC(C)(C)C(=O)Nc1cc(-c2n[nH]c(=O)c3ccccc23)ccc1N1CCN(C(C)(C)C)CC1` [N-(2-(4-tert-butylpiperazin-1-yl)-5-(4-oxo-3,4-dihydrophthalazin-1-yl)phenyl)pivalamide]: > 5 µM; for `Nc1cc(-c2n[nH]c(=O)c3ccccc23)ccc1N1CCN(CC(=O)O)CC1` [2-(4-(2-amino-4-(4-oxo-3,4-dihydrophthalazin-1-yl)phenyl)piperazin-1-yl)acetic acid]: 0.001 to 0.1 µM. To `CN1CCN(c2ccc(-c3n[nH]c(=O)c4ccccc34)cc2NC(=O)Cc2cccs2)CC1` [N-(2-(4-methylpiperazin-1-yl)-5-(4-oxo-3,4-dihydrophthalazin-1-yl)phenyl)-2-(thiophen-2-yl)acetamide] belongs 1 to 5 µM.

In the case of `CN(C)CCN1CCN(c2ccc(-c3n[nH]c(=O)c4ccccc34)cc2N)CC1` [4-(3-amino-4-(4-(2-(dimethylamino)ethyl)piperazin-1-yl)phenyl)phthalazin-1(2H)-one], the IC50 lay within 0.1 to 1 µM. In the case of `CC(C)C(=O)Nc1cc(-c2n[nH]c(=O)c3ccccc23)ccc1N1CCN(C)CC1` [N-(2-(4-methylpiperazin-1-yl)-5-(4-oxo-3,4-dihydrophthalazin-1-yl)phenyl)isobutyramide], the IC50 was in the range of 1 to 5 µM.

With `CN1CCC(N2CCN(c3ccc(-c4n[nH]c(=O)c5ccccc45)cc3N)CC2)CC1` [4-(3-amino-4-(4-(1-methylpiperidin-4-yl)piperazin-1-yl)phenyl)phthalazin-1(2H)-one], the IC50 was 0.001 to 0.1 µM. To `Nc1cc(-c2n[nH]c(=O)c3ccccc23)ccc1N1CCN(CCO)CC1` [4-(3-amino-4-(4-(2-hydroxyethyl)piperazin-1-yl)phenyl)phthalazin-1(2H)-one] belongs 0.001 to 0.1 µM; to `CC(C)(C)OC(=O)CN1CCN(c2ccc(-c3n[nH]c(=O)c4ccccc34)cc2N)CC1` [tert-butyl 2-(4-(2-amino-4-(4-oxo-3,4-dihydrophthalazin-1-yl)phenyl)piperazin-1-yl)acetate], 0.1 to 1 µM.

Consider `Nc1cc(-c2n[nH]c(=O)c3ccccc23)ccc1N1CCN(C(=O)c2ccncc2)CC1` [4-(3-amino-4-(4-isonicotinoylpiperazin-1-yl)phenyl)phthalazin-1(2H)-one], for which the concentration for half-maximal inhibition (IC50) was 0.1 to 1 µM. The same measure for `CC(=O)Nc1cc(-c2n[nH]c(=O)c3ccccc23)ccc1N1CCN(C(C)=O)CC1` [N-(2-(4-acetylpiperazin-1-yl)-5-(4-oxo-3,4-dihydrophthalazin-1-yl)phenyl)acetamide]: 1 to 5 µM; for `CC(=O)Nc1cc(-c2n[nH]c(=O)c3ccccc23)ccc1N1CCN(C)CC1` [N-(2-(4-methylpiperazin-1-yl)-5-(4-oxo-3,4-dihydrophthalazin-1-yl)phenyl)acetamide]: 0.1 to 1 µM; for `N#CCCN1CCN(c2ccc(-c3n[nH]c(=O)c4ccccc34)cc2N)CC1` [3-(4-(2-amino-4-(4-oxo-3,4-dihydrophthalazin-1-yl)phenyl)piperazin-1-yl)propanenitrile]: 0.001 to 0.1 µM.

For `CN1CCN(c2ccc(-c3n[nH]c(=O)c4ccccc34)cc2NC(=O)C2CCCCC2)CC1` [N-(2-(4-methylpiperazin-1-yl)-5-(4-oxo-3,4-dihydrophthalazin-1-yl)phenyl)cyclohexanecarboxamide], the IC50 fell in the range of 0.1 to 1 µM. To `CC(=O)Nc1cc(-c2n[nH]c(=O)c3ccccc23)ccc1N1CCN(C(C)C)CC1` [N-(2-(4-isopropylpiperazin-1-yl)-5-(4-oxo-3,4-dihydrophthalazin-1-yl)phenyl)acetamide] belongs 1 to 5 µM.
